Laboratory results: patent US6410012B1, “Antimicrobial mediated bacterial DNA delivery” (The United States of America as represented by the …, priority 1997, dated 2002)

Tests used:
BHK cells [1] = assay: β-galactosidase activity in lysates of BHK cells infected with Shigella strains (plasmid DNA delivery); assay type: cell-based, baby hamster; settings: for ability of the antimicrobial to mediate bacterial plasmid DNA delivery: attenuated Shigella flexneri not programmed to lyse, in BHK cells
Method: (§1) The protocol used for these experiments consisted of diluting an overnight culture of the bacteria 1 in 50 and allowing it to grow to midlog phase, approximately 2.5 hours. The midlog cultures were then concentrated in Hank's Balanced Salts by centrifugation to approximately 10^9 bacteria per milliliter and a small aliquot was taken to determine the midlog bacterial count. Two milliliters of bacteria were added to the appropriate semi-confluent flask of BHK cells and allowed to incubate for ninety minutes at 37° C. and 5% CO2. After the incubation, the cells were rinsed with Hank's Balanced Salts (Sigma). In most cases the flasks were treated with complete DMEM containing […] gentamicin to kill all extracellular bacteria. Either antibiotic was then added at the designated time.
(§2) Harvesting of cells was carried out as follows. At the appropriate time point media was removed from the flasks and the flasks were rinsed thoroughly with Hank's Balanced Salts followed by Edda Twiddy's EDTA. Flasks were then treated with 5 milliliters of Trypsin-EDTA for 5 minutes at 37° C. and 5% CO2 to lift the adherent mammalian cells from the flask. Ten milliliters of room temperature DMEM with serum was added to inactivate the Trypsin-EDTA. The cells were pelleted at 2000 rpm for 12 minutes at room temperature and resuspended in 10 milliliters of phosphate buffered saline (PBS).
A 100 μl aliquot was taken and diluted in 0.1 % Triton X-100 and plated on diaminopimelic acid (DAP) supplemented congo red (Sigma) tryptic soy agar for 15D or TSA without DAP for SC602. The remainder was again pelleted and resuspended in 1.3 ml PM-2 buffer. 30 μl of 10% Triton X-100 was added and the sample was incubated at room temperature and vortexed frequently for ten minutes to lyse the BHK cells. The cellular debris was pelleted for […] at 13500×g and 4° C.
Four hundred microliters of the supernatant was combined with 400 μl of PM-2 buffer in a spectrophotometric cuvette and allowed to equilibrate to 37° C. 200 μl of ONPG reagent is then added to each sample and any applicable standards. The samples were incubated at 37° C. and timed until a vibrant yellow color appeared, at which point the reaction was complete. The absorbance of each sample was measured at 420 nm and recorded. β-galactosidase activity was calculated as Ab420×380/Time (minutes). To determine the total amount of protein present in each assayed sample 200 μl of cold (−20° C.) acetone was added to 50 μl of the above supernatants, vortexed thoroughly and stored at −20° C. for 30 minutes. The samples were then pelleted for 10 minutes at 14000 rpm and the supernatant was discarded. Samples were allowed to dry in a heated evacuating centrifuge and then resuspended in 50 μl dissociation buffer. The protein concentration was then determined using a standard BCA (Pierce) protein determination protocol. Results are reported as β-galactosidase activity per mg of protein.

BHK cells [2] = assay: viable bacterial counts recovered from infected BHK cells; assay type: cell-based, baby hamster
Method: as §1
as §2, with “(PBS). […]” for “(PBS).”

SMILES	effect on β-galactosidase activity (BHK cells [1]; 15D(pCMVβ) infected BHK cells, treated at various times after the adherence/invasion step)	loss of viable bacteria (BHK cells [2]; 15D(pCMVβ) infected BHK cells, treatment right after to two hours after the adherence/invasion step) [log]	effect on delivery of plasmid DNA by 15D(pCMVβ) (BHK cells [1]; 15D(pCMVβ) infected monolayers treated just after the adherence/invasion step)	ability of the antimicrobial to mediate bacterial plasmid DNA delivery (BHK cells [1]; SC602(pCMVβ))	effect of time of addition on β-galactosidase activity (BHK cells [1]; addition 1 to 2 hours after adherence/invasion compared to just after, SC602(pCMVβ))	effect on number of viable bacteria (BHK cells [2]; after the addition of azithromycin to infected BHK cells)
C[C@@H]1C[C@@H]([C@H](O)CC2CC(=O)NC(=O)C2)C(=O)[C@@H](C)C1 [cyclohexamide]	inhibition of β-galactosidase activity	1				
O=C(O)c1cn(C2CC2)c2cc(N3CCNCC3)c(F)cc2c1=O [ciprofloxacin]			inhibited delivery of the plasmid DNA	unable to mediate DNA delivery		
CC[C@H]1OC(=O)[C@H](C)[C@@H](O[C@H]2C[C@@](C)(OC)[C@@H](O)[C@H](C)O2)[C@H](C)[C@@H](O[C@@H]2O[C@H](C)C[C@H](N(C)C)[C@H]2O)[C@](C)(O)C[C@@H](C)CN(C)[C@H](C)[C@@H](O)[C@]1(C)O [azithromycin]				capable of mediating bacterial-based plasmid DNA delivery	greatly increased the amount of β-galactosidase activity	no dramatic decrease in the number of viable bacteria was detected
